Measurements published in patent US20260108484A1, “TREATMENT OF NEUROPATHIC PAIN IN CANINES” ([…] COMPANY, priority 2022, published 2026).

Tests used:
[1] = system: CKCS symptomatic for CLM/SM; conditions: cited from earlier work
dogs with CLM/SM = conditions: affected dogs, placebo-controlled treatment trial; cited from earlier work
[2] = system: voltage-gated calcium channel α2δ subunits; conditions: cited from earlier work
[3] = system: dogs with CLM/SM (neuropathic pain); experiment: Pilot study and validation of the Questionnaire (CHASE score) in CLM/SM dogs; format: in vivo, dog
Protocol: Please think about how your dog has behaved over the past week and use the scale to tell us how well the phrases describe your dog or what he/she is doing.
Summary values for untransformed and unweighted scores across the five final questions are presented below.
Intervention by a board-certified neurologist and prescription of pregabalin at 5-10 mg/kg twice daily relieved clinical signs and reduced CHASE scores to within the normal range, indicating responsiveness of the questionnaire to standard-of-care medical treatment. […] Using the Questionnaire to solicit owner feedback on disease severity and its impacts on affect and quality of life in this manner, owners and the veterinary neurologist concurred on treatment effects in this 100% of cases. This is to be expected given the potency of pregabalin in the treatment of neuropathic pain; however, no owner assessment tool has ever been reported to detect said effects so sensitively. For example, in a randomized controlled study by Thofner et al. (2020), even the very high dose range of 13 to 19 mg/kg pregabalin yielded concurrence between veterinarian and owner in only 52% of assessments of dogs with CLM/SM.

SMILES: CC(C)C[C@H](CN)CC(=O)O [pregabalin]
- effect size ([1]; CKCS symptomatic for CLM/SM, crossover placebo-controlled): 0.45
- numerical rating scale (NRS) mean score during treatment ([1]; liquid formulation of pregabalin, placebo phase 4.24): 3.17 units
- phantom scratching (dogs with CLM/SM): effectively reduce phantom scratching
- potency and binding affinity compared with gabapentin [2]: better potency and binding affinity than gabapentin
- treated dogs exhibiting improvements of at least 5 points ([3]; 8 treated dogs, pregabalin 5-10 mg/kg twice daily): 100%
- Questionnaire (CHASE) score, Mean ([3]; Treated CLM/SM dogs, n=8, untransformed and unweighted scores across the five final questions, pregabalin 5-10 mg/kg twice daily): 4.4
- improvements in symptom severity on the Questionnaire ([3]; each of the 8 treated dogs, pregabalin 5-10 mg/kg twice daily): at least 5 points
- effect size ([3]; equivalent to improvement of at least 5 points on the Questionnaire): ≥ 1.04
